From patent publication US20220220448A1, “INDUCED HUMAN COLITIC ORGANOIDS” (The Cleveland Clinic Foundation, priority 2019, published 2022)

Legend:
[1] = system: UC epithelial barrier (iHUCOs); test: Epithelial barrier permeability by microinjection of 4 kD dextran, real-time, iHUCOs; type: cell-based, human; conditions: 4 kDa dextran, 15 hours, treated vs untreated
Description: (§1) FIGS. 6A-U: Repertaxin attenuates the progression of the colitic phenotype in iHUCOs in vitro. (A, B) Representative immunofluorescence co-localization expression of CXCR1 (red) and CXCL8 (green) expressed in epithelium and mesenchyme of iHNO and iHUCO in the absence (A) or presence of repertaxin (B). (C, D) Summarized percentages of cells positive for CXCR1, CXCL8 and both, in the epithelium and mesenchyme of non-IBD and UC iHCOs, after treatment with repertaxin (20 μm) compared to vehicle (Ctrl). (E) Representative H&E of non-IBD and UC organoids in Ctrl compared to repertaxin treated (F). (G, H) Organoid mean diameter and epithelial thickness after 21 days of treatment with repertaxin compared to control. […] (S, T) Quantification of the percentage of the cells in control vs. repertaxin-treated organoids, positive for RhoA in plasma membrane-only (Mem) and cytoplasm (Cyt). […] IHC Scale bar, 40 um. IF Scale bar, 25 um. N=3 each; except for barrier studies, N=1. ns: not significant, **(p<0.01), ***(p<0.001), ****(p<0.0001). Moreover, to functionally confirm the adherens vs. tight junction signature in UC compared to non-IBD organoids, we used the recently described microinjection technique by Hill et al. to measure and compare the epithelial barrier permeability for both UC and non-IBD organoids in real-time. […]

[2] = system: epithelial barrier of non-IBD organoids (iHNOs); test: Epithelial barrier permeability by microinjection of 4 kD dextran, real-time, iHNOs; type: cell-based, human; conditions: 4 kDa dextran, 15 hours, treated vs untreated
Description: as §1

[3] = system: iHNOs (non-IBD organoids); test: Repertaxin treatment of iHNOs in vitro during development from spheroids to organoids (IF, IHC, H&E); type: cell-based, human
Description: (§2) FIGS. 6A-U: Repertaxin attenuates the progression of the colitic phenotype in iHUCOs in vitro. (A, B) Representative immunofluorescence co-localization expression of CXCR1 (red) and CXCL8 (green) expressed in epithelium and mesenchyme of iHNO and iHUCO in the absence (A) or presence of repertaxin (B). (C, D) Summarized percentages of cells positive for CXCR1, CXCL8 and both, in the epithelium and mesenchyme of non-IBD and UC iHCOs, after treatment with repertaxin (20 μm) compared to vehicle (Ctrl). (E) Representative H&E of non-IBD and UC organoids in Ctrl compared to repertaxin treated (F). (G, H) Organoid mean diameter and epithelial thickness after 21 days of treatment with repertaxin compared to control. […] (S, T) Quantification of the percentage of the cells in control vs. repertaxin-treated organoids, positive for RhoA in plasma membrane-only (Mem) and cytoplasm (Cyt). […] IHC Scale bar, 40 um. IF Scale bar, 25 um. N=3 each; except for barrier studies, N=1. ns: not significant, **(p<0.01), ***(p<0.001), ****(p<0.0001). The upregulation of the CXCL8 receptor pro-inflammatory interaction in iHUCOs (FIG. 5) led us to study the effect of repertaxin, a small molecule inhibitor of the CXCL8 receptor, on organoids development. In brief, we treated both UC and non-IBD organoids with repertaxin for 21 days, during their development from spheroids to organoids and compared their phenotypic characteristics to vehicle (Ctrl) organoids.

iHUCOs (UC organoids) = test: Repertaxin treatment of iHUCOs in vitro during development from spheroids to organoids (IF, IHC, H&E, in situ hybridization); type: cell-based, human
Description: as §2

iHNOs = test: Repertaxin in vivo: non-IBD spheroids in TS-HA hydrogel beads implanted subcutaneously in NSG mice
Description: (§3) FIGS. 7A-U: Repertaxin attenuates the progression of the colitic phenotype in iHUCOs in vivo. (A) Schematic representation of repertaxin study in vivo; spheroids encapsulated in TS-HA hydrogel beads were implanted subcutaneously in the dorsal flanks of immunocompromised NSG mice receiving daily injections of repertaxin vs. PBS (21 days). (B, C) Representative immunofluorescence dual-staining of CXCR1 (red) and CXCL8 (green) expressed in epithelium and mesenchyme of iHNO and iHUCO in Ctrl (B) or repertaxin-treated (C). (D, E) Summarized percentages of cells positive for CXCR1, CXCL8 and both, in the epithelium and mesenchyme of non-IBD and UC organoids, after treatment with repertaxin (20 mg/kg) compared to PBS (Ctrl). (F-G) Representative H&E of non-IBD and UC organoids harvested after 21 days for control (F) and repertaxin treatment (G). (H, I) Mean organoid diameter and epithelial thickness after 21 days of repertaxin treatment vs. Ctrl. […] Results reported for the plasma membrane only (Mem), and cytoplasm+nucleus (Cyt+Nuc) cellular compartments. (R, S) Representative immunohistochemistry of RhoA, highlighting the effect of repertaxin on the cellular localization of the protein in plasma membrane only (Mem), and cytoplasm (Cyt) compartments. (T, U) Summarized percentages of cells expressing RhoA in Ctrl vs. repertaxin-treated organoids for plasma membrane-only (Mem) and cytoplasm (Cyt). IHC Scale bar, 40 um. IF Scale bar, 25 um. N=3 each. ns=not significant, *(p<0.05), **(p<0.01), ***(p<0.001), ****(p<0.0001). […] To test the significance of our repertaxin observations in vivo, we studied the effect of repertaxin on the developmental progression of spheroids to organoids, implanted subcutaneously in the dorsal flank of NSG mice (FIG. 7A, STAR Methods). In brief, we encapsulated the spheroids in TS-HA hydrogel beads and implanted the beads subcutaneously. Mice were then treated daily for 21 days with either 20 mg/kg repertaxin or PBS (control). The rate of growth was measured twice per week with calipers, and the volume calculated (STAR Methods).

iHUCOs = test: Repertaxin in vivo: UC spheroids in TS-HA hydrogel beads implanted subcutaneously in NSG mice
Description: as §3

[4] = iHNOs, IHC, repertaxin vs control
[5] = non-IBD organoids, 21 days repertaxin vs control
[6] = non-IBD organoids, IHC, repertaxin vs control
[7] = non-IBD organoids, repertaxin (20 μm), 21 days, vs control
[8] = UC organoids, IHC, repertaxin vs control
[9] = iHUCOs epithelium, IHC, repertaxin vs control
[10] = iHUCOs, 21 days repertaxin vs control
[11] = iHUCOs, repertaxin (20 μm), 21 days, vs control
[12] = iHUCOs, repertaxin (20 μm), 21 days, vs vehicle (Ctrl), average
[13] = non-IBD organoids, 20 mg/kg daily, 21 days, vs PBS
[14] = UC organoids, 20 mg/kg daily, 21 days, vs PBS
[15] = iHUCOs, 20 mg/kg daily, 21 days, vs PBS
[16] = iHUCOs, IHC, vs untreated control

- rate of permeability of the epithelial barrier (dye release) [1]: significantly decreased
- epithelial permeability (dye release) [2]: did not have a significant effect
SMILES: CC(C)Cc1ccc([C@@H](C)C(=O)NS(C)(=O)=O)cc1 [repertaxin]
- real-time measurement timepoints with significantly decreased permeability [1]: 50%
- Ki67 expression in the epithelium (proliferation) [3, 4]: significantly lower expression
- RhoA expression [3, 4]: did not significantly affect
- Claudin-1 expression ([3]; iHNOs, IHC, treated vs control): no significant changes
- epithelial thickness [3, 5]: did not change
- organoid size [3, 5]: significantly smaller organoids
- cells with expression of E-cadherin limited to the plasma membrane [3, 6]: significantly more cells with limited expression
- cells with expression of β-catenin limited to the plasma membrane [3, 6]: significantly more cells with limited expression
- cytoplasmic and nuclear expression of E-cadherin [3, 6]: lower cytoplasmic and nuclear expression
- cytoplasmic and nuclear expression of β-catenin [3, 6]: lower cytoplasmic and nuclear expression
- CXCL8 expression [3, 7]: significantly less
- CXCR1 expression [3, 7]: significantly less
- cytoplasmic and nuclear expression of E-cadherin (iHUCOs (UC organoids); [8]): greater
- cytoplasmic and nuclear expression of β-catenin (iHUCOs (UC organoids); [8]): greater
- RhoA expression in cytoplasm (iHUCOs (UC organoids); [9]): less RhoA expression
- less RhoA expression on the membrane (activated RhoA) (iHUCOs (UC organoids); [9]): ~5 fold
- epithelial thickness (iHUCOs (UC organoids); [10]): less thick epithelium
- organoid size (iHUCOs (UC organoids); [10]): significantly lower size
- Claudin-1 expression (iHUCOs (UC organoids); iHUCOs, IHC, repertaxin vs control): significantly more expression
- CXCL8 expression (iHUCOs (UC organoids); [11]): significantly lower than control
- percentage of co-expression of CXCL8/CXCR1 (iHUCOs (UC organoids); [11]): significantly lower than control
- lower expression of CXCR1 in the epithelium (iHUCOs (UC organoids); [12]): 7 fold
- lower expression of CXCR1 in the mesenchyme (iHUCOs (UC organoids); [12]): 9 fold
- expression pattern of p-YAP1 (iHUCOs (UC organoids); treated iHUCOs, IHC): more closely resembled the expression patterns in iHNOs
- expression pattern of LGR5 (iHUCOs (UC organoids); treated iHUCOs, in situ hybridization): more closely resembled the expression patterns in iHNOs
- epithelial thickness (iHNOs; iHNOs, 20 mg/kg daily, 21 days, vs PBS): no significant effect
- E-cadherin expression pattern (iHNOs; iHNOs, IHC, vs control): higher rate of expression in membrane
- RhoA expression (iHNOs; iHNOs, IHC, vs control): did not have a significant effect
- β-catenin expression pattern (iHNOs; iHNOs, IHC, vs control): higher rate of expression in membrane
- Ki67 proliferation rate in the epithelium (iHNOs; non-IBD epithelium, 20 mg/kg daily, 21 days, vs PBS): did not have a significant effect
- CXCL8 expression (iHNOs; [13]): less
- CXCR1 expression (iHNOs; [13]): less
- Claudin-1 expression (iHNOs; non-IBD organoids, IHC, vs control): did not change
- overall calculated volume of implanted beads (iHUCOs; 20 mg/kg repertaxin daily for 21 days vs PBS, groups (UC and non-IBD) not told apart): significantly greater in the PBS than in the repertaxin-treated groups
- CXCL8 expression (iHUCOs; [14]): less
- CXCR1 expression (iHUCOs; [14]): less
- Ki67 proliferation rate in the epithelium (iHUCOs; [15]): significantly reduced
- epithelial thickness (iHUCOs; [15]): significant less thick epithelium
- Claudin-1 expression (iHUCOs; iHUCOs, IHC, vs control): significantly increased
- cytoplasmic expression of RhoA (iHUCOs; iHUCOs, IHC, vs control): strongly decreased
- membranous expression of RhoA (iHUCOs; iHUCOs, IHC, vs control): strongly decreased
- cytoplasmic and nuclear expression of E-cadherin (iHUCOs; [16]): greater cytoplasmic and nuclear expression
- cytoplasmic and nuclear expression of β-catenin (iHUCOs; [16]): greater cytoplasmic and nuclear expression
